# Test results taken from US20150133493A1, “COUMARIN-BASED COMPOUNDS FOR THE TREATMENT OF ALZHEIMER'S DISEASE AND CANCER” (Sloan-Kettering Institute for Cancer Research, priority 2008, published 2015).
# “Also recorded” adds a separate entry of the source.
# Legend:
# γ-secretase = biological target: T1, γ-secretase (Homo sapiens, UniProt P49768); assay: In vitro γ-secretase activity assay, Aβ42 production (ECL); assay type: biochemical; conditions: in words
# T1 construct: endogenous in cells
# Method: FIG. 2. In vitro characterization of coumarin-dimer allosteric GSIs against various γ-secretase cleavage products. […] The IC50 values were calculated from the dose response curves using a non-linear regression analysis in Prism software. […] The three β-amyloid-detection in vitro assays were modified from our previously reported assay (21) using a biotinylated substrate that eliminated the requirement of anti-β-amyloid biotinylated antibody. Ruthenylated antibodies that detected the -40, -42, or -38 cleavage site were incorporated to detect proteolysis indicative of γ-secretase activity. In vitro Notch assay utilized a recombinant transmembrane portion of the Notch peptide and anti-Notch1 SM320 antibody in conjunction with ruthenylated anti-rabbit secondary antibodies. Electrochemiluminescence was quantified on an Analyzer (BioVeris).
# Briefly, recombinant peptide substrate was incubated with γ-secretase (40 μg/ml) in the presence or absence of test compound. […] The reaction was incubated for 2.5 hr at 37° C. and stopped by adding RIPA buffer (150 mM NaCl, 1.0% NP-40, 0.5% sodium deoxycholate, 0.1% SDS, 50 mM Tris HCl, pH 8.0). […] The amount of product was determined using synthetic peptide or recombinant standards.
# (§1) Cell membranes and solubilized γ-secretase were prepared as described previously (36). The in vitro and cell γ-secretase assays detecting either Aβ38, Aβ40, or Aβ42 cleavage were performed similar as previously described (21, 36). Cleaved product was detected using ruthenylated antibodies that recognize specific APP cleavage sites (Aβ31-38*, G2-10*, or G2-11* antibody for Aβ38, Aβ40, or Aβ42 respectively). The Km and Vmax in the presence and absence of γ-secretase inhibitors were analyzed by non-linear curve fit using the software SigmaPlot 8.0 with the Michaelis-Menten equation (v=Vm [S]/(Km+[S]; v: initial rate; Vm: maximum velocity; Km: the Michaelis-Menten constant, S: substrate).
# [1] = system: N2a mouse neuroblastoma cells that stably express Swedish-mutated APP; assay: Cell-based assay of secreted Aβ42, Aβ40, Aβ38 in APPsw-N2A cells; conditions: 24 hrs, in words, CS-1 up to 30 μM
# Method: FIG. 3. Cellular evaluation of the coumarin-dimer CS-1 and its selective inhibition of Aβ42. Compounds were incubated with the APPsw-N2A mouse neuroblastoma cells for 24 hours and media were analyzed by biotinylated 4G8 and ruthenylated antibodies specific for each respective cleavage product. […] (d) Immunoprecipitation mass spectrometry analysis of CS-1 effect on secreted β-amyloid species. Aβ peptides were immunoprecipitated using 4G8 antibody and isolated with Protein G+/A agarose beads. Samples were analyzed by MALDI-MS. Samples shown are representative and each data point was performed in triplicate. (e) Cell-based Notch cleavage assay. HEK-293 cells were transfected with ΔE Notch construct and then Compound E and CS-1 were evaluated for their ability to inhibit γ-secretase-mediated Notch intracellular domain production. […] Western blot is representative and was performed in triplicate. (f) Effect of CS-1 on AICD production. N2A APPsw cell membrane was prepared and incubated with the indicated concentrations of CS-1 at 37° C. for 2 hours. The generated AICD and APP-CTFs were detected by Western Blotting using APPc antibody. Western blot is representative and was performed in triplicate.
# We next set out to determine if the selective inhibition of Aβ42 was maintained in a cell-based system for APP processing. First, we compared our lead compound CS-1 (FIG. 3a) to Compound E (FIG. 3b) and the GSM compound indomethacin (FIG. 3c). N2a mouse neuroblastoma cells that stably express Swedish-mutated APP substrate were treated with the indicated compounds for 24 hrs at 37° C. Following 24 hr incubation period, the medium was collected from the cells and assayed for secreted Aβ42, Aβ40, and Aβ38. […] The result for indomethacin mirrored those findings by Kukar et al. whereby a different cell-based system was utilized (17), further validating our assay system for analysis of these Aβ species. […] This may reflect subtle variations between the cellular and in vitro conformations of γ-secretase. Nevertheless, the cell-based studies confirmed that CS-1 maintains a preference for inhibition of the γ-secretase mediated production of Aβ42 over Aβ40 or Aβ38, which is distinct to previously reported GSMs (17) and inhibitors (14-15, 18).
# as §1
# [2] = system: HEK-293 cells transfected with ΔE Notch construct; assay: Cell-based Notch cleavage assay (NICD production); conditions: HEK-293, ΔE Notch, 24 hrs; Western blot; CS-1 up to 30 μM
# Method: FIG. 3. Cellular evaluation of the coumarin-dimer CS-1 and its selective inhibition of Aβ42. Compounds were incubated with the APPsw-N2A mouse neuroblastoma cells for 24 hours and media were analyzed by biotinylated 4G8 and ruthenylated antibodies specific for each respective cleavage product. […] (d) Immunoprecipitation mass spectrometry analysis of CS-1 effect on secreted β-amyloid species. Aβ peptides were immunoprecipitated using 4G8 antibody and isolated with Protein G+/A agarose beads. Samples were analyzed by MALDI-MS. Samples shown are representative and each data point was performed in triplicate. (e) Cell-based Notch cleavage assay. HEK-293 cells were transfected with ΔE Notch construct and then Compound E and CS-1 were evaluated for their ability to inhibit γ-secretase-mediated Notch intracellular domain production. […] The generated AICD and APP-CTFs were detected by Western Blotting using APPc antibody. […]
# We next determined the ability of CS-1 to suppress cellular γ-secretase activity for Notch1 cleavage. […]
# ΔE Notch or empty pcDNA3.1(−) construct was transfected into HEK-293 cells in a 6-well format using Lipofectamine reagent, following manufacturer's instructions. […] Samples were then centrifuged at 13,000 rpm's at 4° C. and the supernatent was collected and analyzed by Western analysis using either anti-Myc antibody at a 1:1000 dilution or anti-NICD-1 SM320 at a 1:500 dilution.
structure (smiles),measurement,setting,value
C[C@H](NC(=O)Cc1cc(F)cc(F)c1)C(=O)N[C@H]1N=C(c2ccccc2)c2ccccc2N(C)C1=O [Compound E],inhibitory potency and selectivity against γ-secretase cleavage activities in vitro,γ-secretase,did not exhibit any significant selectivity
same,effect on secreted Aβ38 production,[1],no inhibitory selectivity; also recorded: inhibited the production of all three β-amyloid species with equal potency
same,effect on secreted Aβ40 production,[1],no inhibitory selectivity; also recorded: inhibited the production of all three β-amyloid species with equal potency
same,effect on secreted Aβ42 production,[1],no inhibitory selectivity; also recorded: inhibited the production of all three β-amyloid species with equal potency
same,effect on Notch intracellular domain (NICD) production,[2],able to prevent production of NICD; also recorded: effectively blocked all production
